US20030207941A1, “Method of treating vascular endothelial growth factor mediated vascular disorders” (priority 2002, published 2003)

How the values were obtained:
choroidal NV = choroidal NV in a mouse model, topical administration; assay type: in vivo; conditions: previous findings
COX-1 = COX-1 (Homo sapiens, UniProt P23219); conditions: known; cited from earlier work
[1] = system: BRMEC (Bovine Retinal Microvascular Endothelial Cell); test: VEGF-induced BRMEC capillary tube formation; assay type: cell-based
Protocol: A mixture of 8 vol of Vitrogen 100 (Cohesion; Palo Alto, Calif.), 1 vol. of 0.2N NaOH, and 1 vol. of 10× RPMI-1640 medium containing 5 μg/ml fibronectin and 5 μg/ml laminin was prepared and 400 μl was added to each well of a 24-well plate. After incubating for 3 hrs at 37° C. to solidify the gel, 10^4 BRMEC were added to each well and incubated in growth medium for 3 days. Then the medium was carefully aspirated and 200 μl of the gel solution was layered on top of the cells and incubated at 37° C. for 1 hr. Following addition of growth medium for 24 hrs, 2 ml of test medium containing serum-free (SF) medium plus VEGF or SF medium plus VEGF and AL06295A were added to each well. The gels were assessed 24 hrs later.
For quantitative analysis, six fields per treatment group were chosen from areas containing tubes; seven wells were used for each treatment. The lengths of the tubes were measured in digitized images, and the data are expressed in FIG. 2 as the total length per field of view in μm.

COX-2 = target: T1, COX-2 (Homo sapiens, UniProt P35354); conditions: known; cited from earlier work
T1 sequence (P35354 18-604): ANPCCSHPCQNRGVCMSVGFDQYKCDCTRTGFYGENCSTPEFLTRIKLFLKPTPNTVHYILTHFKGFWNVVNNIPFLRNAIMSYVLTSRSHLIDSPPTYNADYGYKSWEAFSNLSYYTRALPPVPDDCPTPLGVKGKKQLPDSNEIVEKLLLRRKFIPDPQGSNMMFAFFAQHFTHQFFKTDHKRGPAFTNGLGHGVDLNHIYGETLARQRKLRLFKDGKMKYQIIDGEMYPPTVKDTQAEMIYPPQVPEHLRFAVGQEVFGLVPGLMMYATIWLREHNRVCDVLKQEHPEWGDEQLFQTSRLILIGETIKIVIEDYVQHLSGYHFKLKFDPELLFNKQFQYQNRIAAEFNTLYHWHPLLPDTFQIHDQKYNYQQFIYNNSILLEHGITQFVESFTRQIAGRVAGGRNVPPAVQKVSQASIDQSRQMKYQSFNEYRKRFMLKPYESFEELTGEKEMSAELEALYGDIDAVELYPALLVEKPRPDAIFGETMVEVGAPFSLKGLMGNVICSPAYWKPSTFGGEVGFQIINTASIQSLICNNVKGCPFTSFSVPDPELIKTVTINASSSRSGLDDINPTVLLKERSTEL

[2] = system: BRMEC (Bovine Retinal Microvascular Endothelial Cell); test: VEGF-induced BRMEC proliferation, modified MTT assay; assay type: cell-based
Protocol: VEGF-induced BRMEC proliferation was measured using a modified MTT assay, BRMEC were plated at 3×10^3 onto a fibronectin/hyaluronic acid matrix in 96-well plates (Coming). Growth medium was added for two days, followed by serum free medium (SFM) overnight, then by test medium containing 0 or 25 ng/ml VEGF in 100 μl of SFM. After 24 hours at 37° C./5%CO2, 25 μl of MTT (3-(4,5-dimethylthiazol-2-yl)-2,5-diphenyl tetrazolium bromide) was added to each well and incubated for 4 hours. 100 μl of lysis buffer (20%SDS in 50:50 DMF:H2O+2.0% acetic acid and 0.05%HCl) was then added to each well, and the plates were incubated overnight at 37° C. and read (SPECTRAmax 190, Molecular Devices; Sunnyvale, Calif.) at 570 nm. For experiments utilizing AL06295, 25 ng/ml VEGF was combined with the compound at 0.1, 0.3, 1.0 or 3 μM.

[3] = dose-response fashion, bovine retinal microvascular endothelial cell assay

Sequence of COX-1 (P23219 24-599): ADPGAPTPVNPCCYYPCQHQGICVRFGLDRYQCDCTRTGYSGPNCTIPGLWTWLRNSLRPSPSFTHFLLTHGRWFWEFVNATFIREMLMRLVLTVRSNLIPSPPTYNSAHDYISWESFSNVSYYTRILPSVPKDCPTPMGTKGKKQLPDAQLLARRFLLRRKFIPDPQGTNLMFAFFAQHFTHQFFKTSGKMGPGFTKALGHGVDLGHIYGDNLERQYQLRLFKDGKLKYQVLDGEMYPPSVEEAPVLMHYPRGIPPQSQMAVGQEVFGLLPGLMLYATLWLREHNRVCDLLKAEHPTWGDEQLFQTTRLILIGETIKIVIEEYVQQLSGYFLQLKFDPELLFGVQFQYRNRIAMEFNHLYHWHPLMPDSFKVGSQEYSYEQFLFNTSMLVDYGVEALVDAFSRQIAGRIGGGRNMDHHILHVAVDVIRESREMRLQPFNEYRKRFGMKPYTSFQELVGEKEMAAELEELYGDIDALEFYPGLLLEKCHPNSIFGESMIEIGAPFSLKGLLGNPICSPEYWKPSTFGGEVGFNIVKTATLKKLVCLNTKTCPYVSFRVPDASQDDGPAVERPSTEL

Compound	choroidal NV (choroidal NV)	activity of COX-1 enzyme (COX-1)	VEGF induced capillary tube formation in BRMECs (total tube length per field of view) ([1]; all doses, SF medium plus VEGF, assessed 24 hrs later, FIG. 2)	VEGF-induced capillary tube formation [1, 3]	activity of COX-2 enzyme (COX-2)	VEGF induced BRMEC proliferation ([2]; 1 and 3 μM doses, 25 ng/ml VEGF, 24 hours, FIG. 1)	VEGF-induced cell proliferation [2, 3]
NC(=O)Cc1cccc(C(=O)c2ccccc2)c1N [nepafenac]	inhibited						
2-amino-3-benzoylbenzene acetic acid [amfenac]		potently inhibit	significantly and potently inhibit	inhibit	potently inhibit	significantly reduce	inhibit
